Data published in ChEMBL document CHEMBL1156829 (Proc Natl Acad Sci U S A, 2008).

Experiments:
[1] = test system: Plasmodium falciparum; assay: NOVARTIS: Inhibition of Plasmodium falciparum 3D7 (drug-susceptible) proliferation in erythrocyte-based infection assay; type: functional, organism-based; conditions: Plasmodium falciparum, 3D7
[2] = test system: Plasmodium falciparum; assay: NOVARTIS: Inhibition of Plasmodium falciparum W2 (drug-resistant) proliferation in erythrocyte-based infection assay; type: functional, organism-based; conditions: Plasmodium falciparum, W2; read-out: EC50
[3] = NOVARTIS: Cytotoxicity against human hepatocellular carcinoma cell line (Huh7); type: toxicity, cell-based, Huh-7; conditions: Huh7 cells (hepatocellular carcinoma cell line)

| Structure (SMILES) | EC50 [1] [nM] | EC50 [2] [nM] | CC50 [3] [nM] |
| --- | --- | --- | --- |
| CC(C)(C)c1ccc(Cn2nnc3c(O)nc(C4CCN(C(=O)c5ccccc5)CC4)nc32)cc1 | 242 | 852 | > 100000 |
| Cc1ccc(-n2c(SCc3cccc4ccccc34)nc3sc4c(c3c2=O)CCN(C)C4)cc1 | > 6520 | 3300 | > 100000 |
| COc1cccc2c(C)nc(N=C(N)N)nc12 | 291 | 688 | 53500 |
| O=C(NCSC1=NCCS1)c1ccccc1 | > 12500 | > 6030 | > 100000 |
| CCOC(=O)C1=C(C)NC2=C(C(=O)C(C(=O)OCC)C(c3ccccc3OC)C2)C1c1ccc(OC)c(OC)c1 (centres undefined) | 83.1 | 74.4 | > 100000 |
| Cc1ccc2c(nc3sc(=Cc4ccc(-c5ccccc5F)o4)c(=O)n32)c1C | 921 | > 1250 | > 10000 |
| C=CCSc1nn2c(=O)c(C)nnc2s1 | > 1620 | 1080 | > 10000 |
| Cc1nc(-c2ccccc2)nc(C(=O)N2CCN(S(=O)(=O)/C=C/c3ccccc3)C(C)C2)c1C(=O)OCC(C)C (centres undefined) | 931 | 785 | > 10000 |
| COc1ccc(C2Sc3ccccc3N=C3C2=C(O)c2ccccc23)cc1 (centres undefined) | 238 | 174 | > 100000 |
| O=C(CCl)NCCNc1ncc(C(F)(F)F)cc1Cl | 453 | 612 | 17800 |
| Cc1ccc2[nH]c3c(NCCc4ccccc4F)ncnc3c2c1 | 835 | 843 | 16500 |
| C=C[C@H]1CN2CC[C@H]1C[C@H]2[C@H](OC(=O)c1cccc([N+](=O)[O-])c1)c1ccnc2ccccc12 | 396 | < 14.5 | > 10000 |
| O=C(CCl)Nc1ccc(OC(F)F)cc1 | 317 | 162 | 18100 |
| Cc1ccc(C(=O)c2c(C)oc3ccc(O)cc23)cc1 | > 1250 | > 839 | > 10000 |
| CC1=C(C(=O)OCCOc2ccccc2)C(c2cccc([N+](=O)[O-])c2)C2=C(CCCC2=O)N1 (centres undefined) | > 1250 | 1810 | > 10000 |
| Cc1ccc(C)c(NC(=O)C2CCCN(c3nnc(N4CCCC4=O)s3)C2)c1 (centres undefined) | > 5750 | 154 | > 100000 |
| CC(=O)N(/C=C1/Sc2ccccc2C1=O)c1ccc(C)cc1 | > 1250 | 2410 | > 10000 |
| O=C(COC(c1ccccc1)c1c(Cl)cncc1Cl)N1CCNCC1 (centres undefined) | 592 | 2570 | 48200 |
| O=C1C(=O)N(Cc2cccc3ccccc23)c2ccc(Br)cc21 | > 12500 | 4230 | > 100000 |
| CC1=C(C(=O)OC(C)C)C(c2ccc(F)cc2)C2=C(CC(c3ccc(Cl)cc3)CC2=O)N1 (centres undefined) | 358 | 91.3 | 29700 |
| Cc1cc2nc3ccc(N(C)C)cc3[n+](-c3ccccc3)c2cc1N | 156 | 31.2 | > 10000 |
| O=C(C[n+]1cc(-c2ccc(F)cc2)n2c1CCC2)Nc1ccc(Cl)cc1 | 2880 | 2300 | > 100000 |
| CC(=O)OC1(C)CC(C)C(=O)C(C(O)CC2CC(=O)NC(=O)C2)C1 (centres undefined) | 74.7 | 58.7 | > 5890 |

| Structure (SMILES) | EC50 [1] [nM] | EC50 [2] [nM] | CC50 [3] [nM] |
| --- | --- | --- | --- |
| Cc1ccc(C2(C)CC(C)(C)N(C(=O)Cc3ccccc3)c3ccc(C(c4ccccc4)(c4ccccc4)c4ccccc4)cc32)cc1 (centres undefined) | 4790 | 5680 | > 100000 |
| Cc1ccc(S(=O)(=O)NC(Cc2ccccc2)C(=O)N2CCC(C3CCN(C(=O)c4ccc([N+](=O)[O-])o4)CC3)CC2)cc1 (centres undefined) | 1910 | > 1680 | > 10000 |
| OC(CCN1CCN(C(c2ccccc2)c2ccccc2)CC1)c1ccccc1 (centres undefined) | 4650 | 1030 | > 100000 |
| Cc1c2cnn(CC(=O)O)c(=O)c2c(C)n1Cc1cccc(Cl)c1 | > 12500 | 789 | > 100000 |
| Cc1cccc(Nc2nc3nonc3[nH]c2=NN=Cc2cccs2)c1C | 8650 | 4300 | 23300 |
| O=C(NCCCCNc1ccnc2cc(Cl)ccc12)c1ccc(Br)cc1 | 218 | 291 | > 8730 |
| CCOC(=O)c1cnc2ccccc2c1NCCCN(C)C | 198 | 222 | 52100 |
| CCOC(=O)c1cc(-c2ccc(C)cc2)n(CCC(=O)Nc2cccc(C(F)(F)F)c2)c1C | 823 | 327 | 33700 |
| O=C(Cc1cccs1)N1CCOc2c(cc(-c3csc4ccccc34)cc2OCCc2ccccn2)C1 | 179 | 106 | > 100000 |
| Cc1c(C(=O)Nc2ccccc2)sc2ncn(Cc3ccccc3F)c(=O)c12 | > 875 | > 1480 | > 10000 |
| CCOC(=O)c1c(-c2ccccc2)oc2c1C(=O)c1ccccc1C2=O | 1130 | 1350 | > 100000 |
| COC(=O)C1=C(C)NC2=C(C(=O)CC(C)(C)C2)C1c1ccc(C)o1 (centres undefined) | 1580 | 638 | > 100000 |
| OC(CNc1cccc2ccccc12)Cn1c2ccc(Cl)cc2c2cc(Cl)ccc21 (centres undefined) | 403 | 306 | 54200 |
| CC(=O)Nc1ccccc1-c1nnn(CC(N)=O)n1 | > 10500 | > 10400 | > 100000 |
| CCCC(=O)NC(C(=O)N1CCN(C(c2ccccc2)c2ccccc2)CC1)C(C)C (centres undefined) | 387 | 10.9 | > 10000 |
| CCOC(=O)c1cnc2c(OC)cccc2c1Nc1ccc(OC)c(OC)c1 | 827 | 493 | > 10000 |
| C=CCSC1=NC2(CC(c3ccccc3)c3cc(Cl)c(O)cc3O2)CC(C)(C)N1 (centres undefined) | > 1190 | 1520 | > 10000 |
| CCN(CC)CCCC(C)NCc1ccc(OCc2ccccc2)c(OC)c1 (centres undefined) | 771 | 494 | > 10000 |
| COc1cc(NC(C)CCCN(Cc2ccc(F)cc2)C(=O)C(C)(C)CCl)c2ncccc2c1 (centres undefined) | 469 | < 3.43 | > 1830 |
| COC(=O)[C@@H]1C[C@@H](NC(=O)c2ccc(OC)cc2)CN1CC(c1ccccc1)c1ccccc1 | 1150 | < 25.7 | > 4170 |
| C=C1C=CN(Cc2ccccc2)c2ccc(OC)cc21 | 451 | 330 | > 10000 |
| CCN1CCN(c2nc3ccccn3c(=O)c2C=C2SC(=S)N(C(C)C)C2=O)CC1 | 701 | 304 | 79000 |
| Cc1ccc(C)c(Nc2nc(NCc3ccco3)c3ccccc3n2)c1 | 298 | 844 | 5940 |

| Structure (SMILES) | EC50 [1] [nM] | EC50 [2] [nM] | CC50 [3] [nM] |
| --- | --- | --- | --- |
| CCOC(=O)c1sc2ncnc(NCc3ccc(F)cc3)c2c1C | > 12500 | > 3630 | > 100000 |
| COc1ccc(OC)c(-c2ccc(O)c(CNCC3(N4CCCCC4)CCCCC3)c2)c1 | 43.7 | 11.3 | 38000 |
| C=C[C@H]1CN2CC[C@H]1C[C@H]2[C@H](OC(=O)c1ccc(F)cc1)c1ccnc2ccccc12 | 777 | < 8.08 | > 10000 |
| CCC1CN2CCc3cc(OC)c(OC)cc3C2CC1CC1NCCc2cc(OC)c(OC)cc21 (centres undefined) | 35.7 | 36 | 23700 |
| COc1ccc(S(=O)(=O)N2CCN(C(=S)NC3CCCCC3)CC2)cc1 | 8540 | 1000 | > 100000 |
| CC(CC(=O)NCCCCNc1ccnc2cc(Cl)ccc12)CC(C)(C)C (centres undefined) | 443 | 296 | 4590 |
| COc1cc2c(cc1C=C(C#N)c1cccc(C)c1)OCO2 | > 9740 | 1310 | > 100000 |
| N#Cc1ccccc1CN1CCC(Oc2cccc3onc(N)c23)CC1 | > 1660 | 189 | 891 |
| O=C(CSc1oc(-c2ccc(Cl)cc2)nc1[P+](c1ccccc1)(c1ccccc1)c1ccccc1)c1ccccc1 | 851 | > 1180 | > 10000 |
| COCCCNc1nc2cc(OC)c(OC)cc2c2nc(-c3ccccc3)nn12 | 621 | 541 | > 100000 |
| N=C(N)c1ccc(OCCCCCOc2ccc(C(=N)N)cc2)cc1 [PENTAMIDINE] | 66.2 | 68.7 | > 6250 |
| COc1cc(CNc2cc(OCCOc3ccc(Cl)cc3)cc(C(=O)NC3CCN(Cc4ccccc4)CC3)c2)ccc1OCc1ccccc1 | 902 | > 1250 | > 12100 |
| CCN(CC)CCCNc1ccnc2cc3ccccc3cc12 | 33.8 | 51.8 | 26200 |
| O=C1CN(C(=O)CCC2CCCC2)C(c2ccc(F)cc2)c2cc(Cl)ccc2N1 (centres undefined) | 231 | 180 | 26300 |
| CCCc1c(C)nc2ccc(Br)cc2c1O | 1510 | 1340 | > 100000 |
| O=C1C(=Cc2cc([N+](=O)[O-])cc(Br)c2O)C(=O)c2ccccc21 | > 1250 | > 877 | > 10000 |
| Cc1ccc(-c2cn3ccccc3[n+]2CC(=O)c2ccc(Cl)cc2)cc1[N+](=O)[O-] | 369 | 506 | > 10000 |
| CC[n+]1c(SC)ccc2cc(OC)ccc21 | 92.4 | 186 | > 100000 |
| CC(C)(C)CC(C)(C)Nc1c(-c2ccccc2OC(=O)c2cccc(Cl)c2)nc2ccccn12 | 629 | 41.6 | > 10000 |
| C=CCOc1c(Br)cc(C=c2sc3n(c2=O)C(c2ccc(OC)c(OC)c2)C(C(=O)OCC)=C(C)N=3)cc1OC (centres undefined) | > 12500 | 576 | > 100000 |
| O=[N+]([O-])c1ccc(Nc2nc(NN=Cc3ccccc3I)nc(Nc3ccccc3)n2)cc1 | 846 | 2820 | 32800 |
| O=C(Nc1ccc(C2=NCCN2)cc1)Nc1cccc(C(=O)Nc2ccc(C3=NCCN3)cc2)c1 | 108 | 211 | > 10000 |
